{
  "source": "patent US9993478B2",
  "about": "“1-pyrazolyl-3-(4-((2-anilinopyrimidin-4-yl) oxy) napththalen-1-yl) ureas as P38 MAP knase inhibitors” (Respivert Ltd., priority 2011, dated 2018)",
  "system": "d-U937 cells",
  "experiment": "Cell viability: MTT assay",
  "format": "cell-based, human",
  "settings": "1 μg/mL",
  "experimental": "Differentiated U937 cells were pre-incubated with each test compound (final concentration 1 μg/mL or 10 μg/mL in 200 μL media indicated below) under two protocols: the first for 4 hr in 5% FCS RPMI1640 media and the second in 10% FCS RPMI1640 media for 24 h. The supernatant was replaced with new media (200 μL) and MTT stock solution (10 μL, 5 mg/mL) was added to each well. After incubation for 1 hr the media were removed, DMSO (200 μL) was added to each well and the plates were shaken lightly for 1 hr prior to reading the absorbance at 550 nm. The percentage loss of cell viability was calculated for each well relative to vehicle (0.5% DMSO) treatment. Consequently an apparent increase in cell viability for drug treatment relative to vehicle is tabulated as a negative percentage.",
  "data": [
    {"smiles": "Cc1ccc(-n2nc(C(C)(C)C)cc2NC(=O)Nc2ccc(Oc3ccnc(Nc4ccccc4Cl)n3)c3ccccc23)cc1", "note": "[Example 19, 1-(3-(tert-butyl)-1-(p-tolyl)-1H-pyrazol-5-yl)-3-(4-((2-((2-chlorophenyl)amino)pyrimidin-4-yl)oxy)naphthalen-1-yl)urea]", "values": [
      {"measurement": "MTT Assay Cell viability at time point in d-U937 Cells 4 h", "result": "−ve (−ve and +ve indicate the value is below and above respectively, the no significant effect threshold defined as 30% inhibition at 1 μg/mL at the time point indicated)"},
      {"measurement": "MTT Assay Cell viability at time point in d-U937 Cells 24 h", "result": "−ve (−ve and +ve indicate the value is below and above respectively, the no significant effect threshold defined as 30% inhibition at 1 μg/mL at the time point indicated)"}
    ]},
    {"smiles": "Cc1ccc(-n2nc(C(C)(C)C)cc2NC(=O)Nc2ccc(Oc3ccnc(Nc4ccc(O)cc4O)n3)c3ccccc23)cc1", "note": "[Example 32, 1-(3-(tert-butyl)-1-(p-tolyl)-1H-pyrazol-5-yl)-3-(4-((2-((2,4-dihydroxyphenyl)amino)pyrimidin-4-yl)oxy)naphthalen-1-yl)urea]", "values": [
      {"measurement": "MTT Assay Cell viability at time point in d-U937 Cells 4 h", "result": "−ve (−ve and +ve indicate the value is below and above respectively, the no significant effect threshold defined as 30% inhibition at 1 μg/mL at the time point indicated)"},
      {"measurement": "MTT Assay Cell viability at time point in d-U937 Cells 24 h", "result": "−ve (−ve and +ve indicate the value is below and above respectively, the no significant effect threshold defined as 30% inhibition at 1 μg/mL at the time point indicated)"}
    ]},
    {"smiles": "COc1ccc(-n2nc(C(C)(C)C)cc2NC(=O)Nc2ccc(Oc3ccnc(Nc4ccccc4)n3)c3ccccc23)cc1", "note": "[Example 7, 1-(3-(tert-butyl)-1-(4-methoxyphenyl)-1H-pyrazol-5-yl)-3-(4-((2-(phenylamino)pyrimidin-4-yl)oxy)naphthalen-1-yl)urea]", "values": [
      {"measurement": "MTT Assay Cell viability at time point in d-U937 Cells 4 h", "result": "−ve (−ve and +ve indicate the value is below and above respectively, the no significant effect threshold defined as 30% inhibition at 1 μg/mL at the time point indicated)"},
      {"measurement": "MTT Assay Cell viability at time point in d-U937 Cells 24 h", "result": "−ve (−ve and +ve indicate the value is below and above respectively, the no significant effect threshold defined as 30% inhibition at 1 μg/mL at the time point indicated)"}
    ]},
    {"smiles": "Cc1ccc(-n2nc(C(C)(C)C)cc2NC(=O)Nc2ccc(Oc3ccnc(Nc4cccc(C)c4)n3)c3ccccc23)cc1", "note": "[Example 12, 1-(3-(tert-butyl)-1-(p-tolyl)-1H-pyrazol-5-yl)-3-(4-((2-(m-tolylamino)pyrimidin-4-yl)oxy)naphthalen-1-yl)urea]", "values": [
      {"measurement": "MTT Assay Cell viability at time point in d-U937 Cells 4 h", "result": "−ve (−ve and +ve indicate the value is below and above respectively, the no significant effect threshold defined as 30% inhibition at 1 μg/mL at the time point indicated)"},
      {"measurement": "MTT Assay Cell viability at time point in d-U937 Cells 24 h", "result": "−ve (−ve and +ve indicate the value is below and above respectively, the no significant effect threshold defined as 30% inhibition at 1 μg/mL at the time point indicated)"}
    ]},
    {"smiles": "CC(C)(C)c1cc(NC(=O)Nc2ccc(Oc3ccnc(Nc4ccccc4)n3)c3ccccc23)n(-c2ccc(O)cc2)n1", "note": "[Example 3, 1-(3-(tert-butyl)-1-(4-hydroxyphenyl)-1H-pyrazol-5-yl)-3-(4-((2-(phenylamino)pyrimidin-4-yl)oxy)naphthalen-1-yl)urea]", "values": [
      {"measurement": "MTT Assay Cell viability at time point in d-U937 Cells 4 h", "result": "−ve (−ve and +ve indicate the value is below and above respectively, the no significant effect threshold defined as 30% inhibition at 1 μg/mL at the time point indicated)"},
      {"measurement": "MTT Assay Cell viability at time point in d-U937 Cells 24 h", "result": "−ve (−ve and +ve indicate the value is below and above respectively, the no significant effect threshold defined as 30% inhibition at 1 μg/mL at the time point indicated)"}
    ]},
    {"smiles": "COCC(=O)Nc1cc(Oc2ccc(NC(=O)Nc3cc(C(C)(C)C)nn3-c3ccc(C)cc3)c3ccccc23)ccn1", "note": "[Reference Compound, N-(4-(4-(3-(3-tert-butyl-1-p-tolyl-1H-pyrazol-5-yl)ureido)naphthalen-1-yloxy)pyridin-2-yl)-2-methoxyacetamide, reference compound]", "values": [
      {"measurement": "MTT Assay Cell viability at time point in d-U937 Cells 4 h", "result": "−ve (−ve and +ve indicate the value is below and above respectively, the no significant effect threshold defined as 30% inhibition at 1 μg/mL at the time point indicated)"},
      {"measurement": "MTT Assay Cell viability at time point in d-U937 Cells 24 h", "result": "+ve (−ve and +ve indicate the value is below and above respectively, the no significant effect threshold defined as 30% inhibition at 1 μg/mL at the time point indicated)"}
    ]},
    {"smiles": "COc1ccccc1Nc1nccc(Oc2ccc(NC(=O)Nc3cc(C(C)(C)C)nn3-c3ccc(C)cc3)c3ccccc23)n1", "note": "[Example 5, 1-(3-(tert-butyl)-1-(p-tolyl)-1H-pyrazol-5-yl)-3-(4-((2-((2-methoxyphenyl)amino)pyrimidin-4-yl)oxy)naphthalen-1-yl)urea]", "values": [
      {"measurement": "MTT Assay Cell viability at time point in d-U937 Cells 4 h", "result": "−ve (−ve and +ve indicate the value is below and above respectively, the no significant effect threshold defined as 30% inhibition at 1 μg/mL at the time point indicated)"},
      {"measurement": "MTT Assay Cell viability at time point in d-U937 Cells 24 h", "result": "−ve (−ve and +ve indicate the value is below and above respectively, the no significant effect threshold defined as 30% inhibition at 1 μg/mL at the time point indicated)"}
    ]},
    {"smiles": "Cc1ccc(-n2nc(C(C)(C)C)cc2NC(=O)Nc2ccc(Oc3ccnc(Nc4ccc(O)cc4C)n3)c3ccccc23)cc1", "note": "[Example 24, 1-(3-(tert-butyl)-1-(p-tolyl)-1H-pyrazol-5-yl)-3-(4-((2-((4-hydroxy-2-methylphenyl)amino)pyrimidin-4-yl)oxy)naphthalen-1-yl)urea]", "values": [
      {"measurement": "MTT Assay Cell viability at time point in d-U937 Cells 4 h", "result": "−ve (−ve and +ve indicate the value is below and above respectively, the no significant effect threshold defined as 30% inhibition at 1 μg/mL at the time point indicated)"},
      {"measurement": "MTT Assay Cell viability at time point in d-U937 Cells 24 h", "result": "−ve (−ve and +ve indicate the value is below and above respectively, the no significant effect threshold defined as 30% inhibition at 1 μg/mL at the time point indicated)"}
    ]},
    {"smiles": "Cc1ccc(-n2nc(C(C)(C)C)cc2NC(=O)Nc2ccc(Oc3ccnc(Nc4ccc(O)c(F)c4)n3)c3ccccc23)cc1", "note": "[Example 29, 1-(3-(tert-butyl)-1-(p-tolyl)-1H-pyrazol-5-yl)-3-(4-((2-((3-fluoro-4-hydroxyphenyl)amino)pyrimidin-4-yl)oxy)naphthalen-1-yl)urea]", "values": [
      {"measurement": "MTT Assay Cell viability at time point in d-U937 Cells 4 h", "result": "+ve (−ve and +ve indicate the value is below and above respectively, the no significant effect threshold defined as 30% inhibition at 1 μg/mL at the time point indicated)"},
      {"measurement": "MTT Assay Cell viability at time point in d-U937 Cells 24 h", "result": "−ve (−ve and +ve indicate the value is below and above respectively, the no significant effect threshold defined as 30% inhibition at 1 μg/mL at the time point indicated)"}
    ]}
  ]
}
